Test results: patent US20180218112A1, “MOLECULAR BASED DECISION SUPPORT SYSTEM FOR CANCER TREATMENT” (priority 2014, published 2018)

Assays:
[1] = Efficacy estimators of treatment alternatives reported in clinical trial studies; format: in vivo, patients; conditions: for NRS: Non Response Survival, NRS=RS−RTD; for RS: Response Survival, RS=OS+(1−CBR)·RTD; for RTD* months: duration of clinical benefit, from TTP or PFS and graphical KM considerations
Source text: Usually, in oncological studies we distinguish three reactions to a treatment well defined as their proportions are called: […]
ORR (Objective Response Rate which includes Partial Response and Complete Response) based on a percentage reduction of the tumor, PD (Progressive Disease) based on a percentage increase of the tumor and SD (Stable Disease) in which there is neither sufficient shrinkage to qualify for response, nor sufficient increase to qualify for progression.
Their proportion equals to ORR+SD and is called CBR (Clinical Benefit Rate).
OS (Overall Survival) is the median time from the treatment to death/loss of follow up.
RS (Response Survival) is the median time from response to death/loss of follow up in the responders group.
NRS (Non Response Survival) is the median time from the treatment to death/loss of follow up in the non-responders group.
The PFS (Progression Free Survival) or TTP (Time To Progression) is the median time from the treatment to the progression of the disease.
In the best case the DCB (Duration of Clinical Benefit) is also reported, which is the PFS of the participants defined like CBR.

[2] = Molecular Prediction of Response (MPR) for patient X; conditions: for CBR/P(Λ+): Bayesian estimation of P(Ω+|Λ+); for MPR: final Molecular Prediction of Response, patient X; for CBR + α · sd(CBR): heuristic estimate of P(Ω+|Λ+), MPR.QI=1
Source text: Now, the MPR (Molecular Prediction of Response) is based on molecular results of the tumor lab analysis like the following:
At first, we attribute to the patient a “qualitative MPR”: MPR·QI in {−1, 0, 1}
If we don't know about any molecular markers that can predict a clinical response, than: MPR·QI=0
If the molecular analysis predicts no clinical response: MPR·QI=−1, and if the molecular analysis predicts some clinical response (including stable disease) MPR·QI=1.
MPR·QI=−1=>we admit in a deterministic way that MPR=0+sd(CBR)
MPR·QI=1=>we distinguish 3 cases.
Λ−⇒Ω− (or Ω+⇒Λ+) • In the best case if the article gives P(Ω+|Λ+) we use it. • If we have relevant knowledge on P(Λ+) we use a Bayesian estimation
P(Ω+|Λ+)=CBR+α·sd(RR) (2.7)
where α=3 for chemotherapy treatments and 2 for biological treatments.
The molecular predictions of the subject with the appropriated efficacy estimators or prevalence estimator from clinico-molecular and epidemiologic studies give the whole information that we need to obtain the final MPR.

[3] = Adjusted Efficiency Values (AEV), pooling/ranking algorithm and efficiency grades for patient X; conditions: for subjOS: MPR·RS if MPR.QI=1 or MPR·NRS if MPR.QI=−1, table of three AEV by treatment name; for eff.OS: effOS=MPR·RS+(1−MPR)·NRS; for ART (pooled treatment group): sample-size weighted mean ART of the pooled treatments of the line, algorithm steps 1-6
Source text: At each step, we also calculate AEG (Adjusted Efficiency Grades) with its standard-error:
AEG is a vector of grades such that to the higher AEV component the equivalent AEG component is 10 and to the lower AEV component the equivalent AEG component is 1.
At each step j, 1≤j≤k−2, we represent two successive “old” treatments (or treatment groups) which bear some different efficiency values in the j−1 step, in one “new” treatment efficiency vales in the j step. This representation is described below (we refer to it by noting that we “pull” treatments' efficiencies and represent it as a different efficiency value): • We are pooling (AEV(l(j−1))^(j−1), AEV(l(j−1)+1)^(j−1)) as if both treatments were a single treatment with an “average Adjusted Efficiency Value”: AEV(l(j−1))^(j−1)
We retain also initial AEG and final AEG (the last step which is “necessary”). But to finally give the Total Efficiency Score (TES) we use the AEG^(J):
TES=0.5×AEGART^(J)+0.45×AEGeffOS^(J)+0.05×AEGsubjOS^(J) which is a vector for k−J treatments groups.
The three AEV are finally: the RTD adjusted or ART=RTD·MPR, the effOS and a subjective OS (we choose explicitly in which group the patient is) i.e.
From RTD (table 2), MPR (table 4), RS and NRS (table 3) we get our three AEV by
ART=MPR·RTD; effOS=MPR·RS+(1−MPR)·NRS;
subjOS=MPR·RS if MPR·QI=1 or MPR·NRS if MPR·QI=−1.
The alternatives (designated here by their references) are ordered by ascending ART, and CLR are computed
The ART are projected on the grade interval (1,10) and we get:
After the 3 algorithms are done we can summarize 3 grades for each alternative and the final grade is the weighted mean of them (The weights are 0.5 for ART, 0.45 for effOS and 0.05 for subjOS when available)

[4] = clinical trial study population, cited from earlier work; for CBR %: Clinical Benefit Rate (ORR+SD); for OS months: median overall survival; for RR %: response rate
[5] = cited from earlier work; for P(Ω+|Λ+): probability the treatment works given the marker exists, from clinico-molecular studies
[6] = ART=MPR·RTD, table of three AEV by treatment name
[7] = by treatment reference number, ordered ascending, algorithm steps 0-3
[8] = table of three AEV by treatment name

SMILES	NRS [1] [months]	RS [1] [months]	RTD* months [1] [months]	CBR/P(Λ+) [2]	MPR [2]	CBR + α · sd(CBR) [2]	ART [3, 6]	subjOS [3]	ART [3, 7]	eff.OS [3, 8]	ART (pooled treatment group) ([3]; listed as 2)	CBR % [4] [%]	OS months [4] [months]	RR % [4] [%]	P(Ω+|Λ+) [5]	ART (pooled treatment group) ([3]; listed as 1, step 2, pooled treatments 3 and 1)	ART (pooled treatment group) ([3]; listed as 1, step 3, pooled treatments 3, 1 and 6)	ART (pooled treatment group) ([3]; listed as 4)	CBR ([5]; printed in column CBR + α · sd(CBR), MPR.QI=0)
CN(C)C/C=C/C(=O)Nc1cc2c(Nc3ccc(F)c(Cl)c3)ncnc2cc1O[C@H]1CCOC1 [Afatinib]	12.54	16.07	3.5	–	–	–	–	–	–	–	–	–	–	–	–	–	–	–	–
CN(C)/N=N/c1[nH]cnc1C(N)=O [Dacarbasine]	7.21	9.12	1.9	24.42	44	23.66	0.779	4.011	0.836	6.4	0.7858	15	7.5	3	44	–	–	–	–
CO[C@H]1C[C@@H]2CC[C@@H](C)[C@@](O)(O2)C(=O)C(=O)N2CCCC[C@H]2C(=O)O[C@H]([C@H](C)C[C@@H]2CC[C@@H](OCCO)[C@H](OC)C2)CC(=O)[C@H](C)/C=C(\C)[C@@H](O)[C@@H](OC)C(=O)[C@H](C)C[C@H](C)/C=C/C=C/C=C/1C [Everolimus]	5.32	7.12	1.8	53.97	53.97	49.06	2.4	9.077	0.971	11.03	–	32.4	5.9	0	–	–	–	–	–
Cc1nc2ccc(CN(C)c3ccc(C(=O)N[C@@H](CCC(=O)O)C(=O)O)s3)cc2c(=O)[nH]1 [Raltitrexed]	6.68	11.48	4.8	31.01	50	30.97	–	3.841	2.4	6.288	–	15	7.4	0	50	2.275	2.387	–	–
CNC(=O)c1cc(Oc2ccc(NC(=O)Nc3ccc(Cl)c(C(F)(F)F)c3)c(F)c2)ccn1 [Regorafenib]	5.62	7.52	1.9	–	41	–	0.971	–	0.779	7.335	–	41	6.4	1	–	–	–	0.7858	41 (CBR)
O=C1NC(=O)[C@@H](c2cn3c4c(cccc24)CCC3)[C@@H]1c1c[nH]c2ccccc12 [Tivantinib]	5.99	8.69	2.7	–	–	–	–	–	–	–	–	–	–	–	–	–	–	–	–
